Columns and labels:
windgrass [1] = assay: Test Example 4: herbicidal effect by soil treatment (Table 19, symbol L); assay type: in vivo, windgrass (Apera spica-venti); settings: amount of applied herbicide 320 g/ha
Procedure, shortened: (§1)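 Pre-emergence style soil spray: seeds under ~1.5 cm sterilized diluvial soil received a uniform coat of emulsion diluted to the predetermined herbicide amount. Greenhouse 25–30° C; readout at week three on previously defined criteria.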

redroot pigweed [2] = assay: Test Example 4: herbicidal effect by soil treatment (Table 19, symbol N); assay type: in vivo, redroot pigweed (Amaranthus retroflexus); settings: amount of applied herbicide 320 g/ha
Procedure, shortened: as §1

southern crabgrass [3] = assay: Test Example 4: herbicidal effect by soil treatment (Table 19, symbol F); assay type: in vivo, southern crabgrass (Digitaria ciliaris); settings: amount of applied herbicide 320 g/ha
Procedure, shortened: as §1

wild oat [4] = assay: Test Example 5: herbicidal effect by foliage application, plastic box (Table 20, symbol I); assay type: in vivo, wild oat (Avena fatua); settings: foliage application, 320 g/ha
Procedure, shortened: (§2)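 Plants were sown into sterilized diluvial soil under about 1.5 cm cover and kept in a greenhouse at 25° C. to 30° C. Fourteen days on, foliage received an even spray of the diluted emulsion. Herbicidal or crop effect was judged three weeks afterwards.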

blackgrass [5] = assay: Test Example 5: herbicidal effect by foliage application, plastic box (Table 20, symbol J); assay type: in vivo, blackgrass (Alopecurus myosuroides); settings: foliage application, 320 g/ha
Procedure, shortened: as §2

green foxtail [6] = assay: Test Example 4: herbicidal effect by soil treatment (Table 19, symbol G); assay type: in vivo, green foxtail (Setaria viridis); settings: amount of applied herbicide 320 g/ha
Procedure, shortened: as §1

rice flat sedge = assay: Test Example 3: herbicidal effect by foliage application, Wagner pot (Table 18, symbol E); assay type: in vivo, rice flat sedge (Cyperus iria); settings: amount of applied herbicide 320 g/ha
Procedure, shortened: (§3)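 Plants were sown in alluvial soil held under 0.1–0.5 cm standing water and grown 14 days in a greenhouse at 25–30 °C. An emulsifiable formulation, water-diluted to the set dose, was then sprayed onto the foliage, and effects were scored three weeks later using previously defined criteria.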

persian speedwell [7] = assay: Test Example 5: herbicidal effect by foliage application, plastic box (Table 20, symbol R); assay type: in vivo, Persian speedwell (Veronica persica); settings: foliage application, 320 g/ha
Procedure, shortened: as §2

persian speedwell [8] = assay: Test Example 4: herbicidal effect by soil treatment (Table 19, symbol R); assay type: in vivo, Persian speedwell (Veronica persica); settings: amount of applied herbicide 320 g/ha
Procedure, shortened: as §1

barnyard grass [9] = assay: Test Example 4: herbicidal effect by soil treatment (Table 19, symbol H); assay type: in vivo, barnyard grass (Echinochloa crus-galli); settings: amount of applied herbicide 320 g/ha
Procedure, shortened: as §1

lambsquarters [10] = assay: Test Example 4: herbicidal effect by soil treatment (Table 19, symbol O); assay type: in vivo, lambsquarters (Chenopodium album); settings: amount of applied herbicide 320 g/ha
Procedure, shortened: as §1

windgrass [11] = assay: Test Example 5: herbicidal effect by foliage application, plastic box (Table 20, symbol L); assay type: in vivo, windgrass (Apera spica-venti); settings: foliage application, 320 g/ha
Procedure, shortened: as §2

Chinese sprangletop = assay: Test Example 3: herbicidal effect by foliage application, Wagner pot (Table 18, symbol D); assay type: in vivo, chinese sprangletop (Leptochloa chinensis); settings: amount of applied herbicide 320 g/ha
Procedure, shortened: as §3

velvetleaf [12] = assay: Test Example 5: herbicidal effect by foliage application, plastic box (Table 20, symbol M); assay type: in vivo, velvetleaf (Abutilon theophrasti); settings: foliage application, 320 g/ha
Procedure, shortened: as §2

lambsquarters [13] = assay: Test Example 5: herbicidal effect by foliage application, plastic box (Table 20, symbol O); assay type: in vivo, lambsquarters (Chenopodium album); settings: foliage application, 320 g/ha
Procedure, shortened: as §2

redroot pigweed [14] = assay: Test Example 5: herbicidal effect by foliage application, plastic box (Table 20, symbol N); assay type: in vivo, redroot pigweed (Amaranthus retroflexus); settings: foliage application, 320 g/ha
Procedure, shortened: as §2

velvetleaf [15] = assay: Test Example 4: herbicidal effect by soil treatment (Table 19, symbol M); assay type: in vivo, velvetleaf (Abutilon theophrasti); settings: amount of applied herbicide 320 g/ha
Procedure, shortened: as §1

Italian ryegrass [16] = assay: Test Example 4: herbicidal effect by soil treatment (Table 19, symbol K); assay type: in vivo, Italian ryegrass (Lolium multiflorum); settings: amount of applied herbicide 320 g/ha
Procedure, shortened: as §1

false cleavers = assay: Test Example 4: herbicidal effect by soil treatment (Table 19, symbol Q); assay type: in vivo, false cleavers (Galium spurium); settings: amount of applied herbicide 320 g/ha
Procedure, shortened: as §1

green foxtail [17] = assay: Test Example 5: herbicidal effect by foliage application, plastic box (Table 20, symbol G); assay type: in vivo, green foxtail (Setaria viridis); settings: foliage application, 320 g/ha
Procedure, shortened: as §2

Italian ryegrass [18] = assay: Test Example 5: herbicidal effect by foliage application, plastic box (Table 20, symbol K); assay type: in vivo, Italian ryegrass (Lolium multiflorum); settings: foliage application, 320 g/ha
Procedure, shortened: as §2

barnyard grass [19] = assay: Test Example 5: herbicidal effect by foliage application, plastic box (Table 20, symbol H); assay type: in vivo, barnyard grass (Echinochloa crus-galli); settings: foliage application, 320 g/ha
Procedure, shortened: as §2

wild oat [20] = assay: Test Example 4: herbicidal effect by soil treatment (Table 19, symbol I); assay type: in vivo, wild oat (Avena fatua); settings: amount of applied herbicide 320 g/ha
Procedure, shortened: as §1

chickweed [21] = assay: Test Example 5: herbicidal effect by foliage application, plastic box (Table 20, symbol P); assay type: in vivo, common chickweed (Stellaria media); settings: foliage application, 320 g/ha
Procedure, shortened: as §2

chickweed [22] = assay: Test Example 4: herbicidal effect by soil treatment (Table 19, symbol P); assay type: in vivo, common chickweed (Stellaria media); settings: amount of applied herbicide 320 g/ha
Procedure, shortened: as §1

southern crabgrass [23] = assay: Test Example 5: herbicidal effect by foliage application, plastic box (Table 20, symbol F); assay type: in vivo, southern crabgrass (Digitaria ciliaris); settings: foliage application, 320 g/ha
Procedure, shortened: as §2

barnyard grass [24] = assay: Test Example 3: herbicidal effect by foliage application, Wagner pot (Table 18, symbol H); assay type: in vivo, barnyard grass (Echinochloa crus-galli); settings: amount of applied herbicide 320 g/ha
Procedure, shortened: as §3

blackgrass [25] = assay: Test Example 4: herbicidal effect by soil treatment (Table 19, symbol J); assay type: in vivo, blackgrass (Alopecurus myosuroides); settings: amount of applied herbicide 320 g/ha
Procedure, shortened: as §1

[26] = evaluated 3 weeks after application

Cc1ccc2oc(-c3ccc(OC(F)F)cc3)c(-c3c(O)c(C)nn(C)c3=O)c2c1 [9-053]
L: windgrass, herbicidal effect grade (windgrass [1]): 0 (Herbicidal rate of 5% or less (almost no effect))
N: redroot pigweed, herbicidal effect grade (redroot pigweed [2]): 5 (Herbicidal rate of 90% or more (almost completely withered))
F: southern crabgrass, herbicidal effect grade (southern crabgrass [3]): 2 (Herbicidal rate of 20% or more and less than 40%)
I (wild oat) herbicidal effect grade (wild oat [4]; [26]): 0 (Herbicidal rate of 5% or less (almost no effect))
J (blackgrass) herbicidal effect grade (blackgrass [5]; [26]): 4 (Herbicidal rate of 70% or more and less than 90%)
G: green foxtail, herbicidal effect grade (green foxtail [6]): 4 (Herbicidal rate of 70% or more and less than 90%)
Herbicidal effect on E (rice flat sedge), foliage application (rice flat sedge): 4 (Herbicidal rate of 70% or more and less than 90%)
R (persian speedwell) herbicidal effect grade (persian speedwell [7]; [26]): 5 (Herbicidal rate of 90% or more (almost completely withered))
R: persian speedwell, herbicidal effect grade (persian speedwell [8]): 4 (Herbicidal rate of 70% or more and less than 90%)
H: barnyard grass, herbicidal effect grade (barnyard grass [9]): 4 (Herbicidal rate of 70% or more and less than 90%)
O: lambsquarters, herbicidal effect grade (lambsquarters [10]): 5 (Herbicidal rate of 90% or more (almost completely withered))
L (windgrass) herbicidal effect grade (windgrass [11]; [26]): 3 (Herbicidal rate of 40% or more and less than 70%)
Herbicidal effect on D (Chinese sprangletop), foliage application (Chinese sprangletop): 0 (Herbicidal rate of 5% or less (almost no effect))
M (velvetleaf) herbicidal effect grade (velvetleaf [12]; [26]): 5 (Herbicidal rate of 90% or more (almost completely withered))
O (lambsquarters) herbicidal effect grade (lambsquarters [13]; [26]): 5 (Herbicidal rate of 90% or more (almost completely withered))
N (redroot pigweed) herbicidal effect grade (redroot pigweed [14]; [26]): 5 (Herbicidal rate of 90% or more (almost completely withered))
M: velvetleaf, herbicidal effect grade (velvetleaf [15]): 4 (Herbicidal rate of 70% or more and less than 90%)
K: Italian ryegrass, herbicidal effect grade (Italian ryegrass [16]): 5 (Herbicidal rate of 90% or more (almost completely withered))
Q: false cleavers, herbicidal effect grade (false cleavers): 0 (Herbicidal rate of 5% or less (almost no effect))
G (green foxtail) herbicidal effect grade (green foxtail [17]; [26]): 4 (Herbicidal rate of 70% or more and less than 90%)
K (Italian ryegrass) herbicidal effect grade (Italian ryegrass [18]; [26]): 5 (Herbicidal rate of 90% or more (almost completely withered))
H (barnyard grass) herbicidal effect grade (barnyard grass [19]; [26]): 3 (Herbicidal rate of 40% or more and less than 70%)
I: wild oat, herbicidal effect grade (wild oat [20]): 0 (Herbicidal rate of 5% or less (almost no effect))
P (chickweed) herbicidal effect grade (chickweed [21]; [26]): 5 (Herbicidal rate of 90% or more (almost completely withered))
P: chickweed, herbicidal effect grade (chickweed [22]): 3 (Herbicidal rate of 40% or more and less than 70%)
F (southern crabgrass) herbicidal effect grade (southern crabgrass [23]; [26]): 3 (Herbicidal rate of 40% or more and less than 70%)
Herbicidal effect on H (barnyard grass), foliage application (barnyard grass [24]): 4 (Herbicidal rate of 70% or more and less than 90%)

CSCCSc1ccc(-c2sc3ccc(F)cc3c2-c2c(O)c(C)nn(C)c2=O)cc1 [2-421]
herbicidal effect, J: blackgrass (blackgrass [25]): 0 (Herbicidal rate of 5% or less (almost no effect))
herbicidal effect, L: windgrass (windgrass [1]): 0 (Herbicidal rate of 5% or less (almost no effect))
herbicidal effect, N: redroot pigweed (redroot pigweed [2]): 5 (Herbicidal rate of 90% or more (almost completely withered))
herbicidal effect, F: southern crabgrass (southern crabgrass [3]): 2 (Herbicidal rate of 20% or more and less than 40%)
I: wild oat, herbicidal effect grade (wild oat [4]; three weeks after application): 5 (Herbicidal rate of 90% or more (almost completely withered))
J: blackgrass, herbicidal effect grade (blackgrass [5]; three weeks after application): 4 (Herbicidal rate of 70% or more and less than 90%)
herbicidal effect, G: green foxtail (green foxtail [6]): 3 (Herbicidal rate of 40% or more and less than 70%)
herbicidal effect on E: rice flat sedge (rice flat sedge): 5 (Herbicidal rate of 90% or more (almost completely withered))
R: persian speedwell, herbicidal effect grade (persian speedwell [7]; three weeks after application): 5 (Herbicidal rate of 90% or more (almost completely withered))
herbicidal effect, H: barnyard grass (barnyard grass [9]): 1 (Herbicidal rate of 5% or more and less than 20%)
herbicidal effect, O: lambsquarters (lambsquarters [10]): 1 (Herbicidal rate of 5% or more and less than 20%)
L: windgrass, herbicidal effect grade (windgrass [11]; three weeks after application): 5 (Herbicidal rate of 90% or more (almost completely withered))
herbicidal effect on D: Chinese sprangletop (Chinese sprangletop): 2 (Herbicidal rate of 20% or more and less than 40%)
M: velvetleaf, herbicidal effect grade (velvetleaf [12]; three weeks after application): 3 (Herbicidal rate of 40% or more and less than 70%)
O: lambsquarters, herbicidal effect grade (lambsquarters [13]; three weeks after application): 4 (Herbicidal rate of 70% or more and less than 90%)
N: redroot pigweed, herbicidal effect grade (redroot pigweed [14]; three weeks after application): 5 (Herbicidal rate of 90% or more (almost completely withered))
herbicidal effect, M: velvetleaf (velvetleaf [15]): 2 (Herbicidal rate of 20% or more and less than 40%)
herbicidal effect, K: Italian ryegrass (Italian ryegrass [16]): 0 (Herbicidal rate of 5% or less (almost no effect))
herbicidal effect, Q: false cleavers (false cleavers): 0 (Herbicidal rate of 5% or less (almost no effect))
G: green foxtail, herbicidal effect grade (green foxtail [17]; three weeks after application): 5 (Herbicidal rate of 90% or more (almost completely withered))
K: Italian ryegrass, herbicidal effect grade (Italian ryegrass [18]; three weeks after application): 3 (Herbicidal rate of 40% or more and less than 70%)
H: barnyard grass, herbicidal effect grade (barnyard grass [19]; three weeks after application): 5 (Herbicidal rate of 90% or more (almost completely withered))
herbicidal effect, I: wild oat (wild oat [20]): 0 (Herbicidal rate of 5% or less (almost no effect))
P: chickweed, herbicidal effect grade (chickweed [21]; three weeks after application): 5 (Herbicidal rate of 90% or more (almost completely withered))
F: southern crabgrass, herbicidal effect grade (southern crabgrass [23]; three weeks after application): 5 (Herbicidal rate of 90% or more (almost completely withered))
herbicidal effect on H: barnyard grass (barnyard grass [24]): 5 (Herbicidal rate of 90% or more (almost completely withered))
